Patent publication US8901118B2, “Compounds and methods for kinase modulation, and indications therefor” (Plexxikon Inc., priority 2010, dated 2014)

Legend:
[1] = target: c-Kit kinase (Homo sapiens, UniProt P10721); assay: c-Kit kinase biochemical activity assay (AlphaScreen, biotin-(E4Y)10 phosphorylation); details: 100 μM ATP; read-out: Biochemical Inhibition IC50 Kit
Summary of the method: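 Phosphorylation of 30 nM biotin-(E4Y)10 by c-Kit (0.75 ng per reaction) with 100 µM ATP in HEPES pH 7.5 buffer with Mg2+/Mn2+, 5% DMSO, 1 h at room temperature; 8-point 1:2 compound dilutions. AlphaScreen detection with streptavidin donor and PY20 acceptor beads after EDTA stop. IC50 from signal versus concentration.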

[2] = target: CYP2C9 (Homo sapiens, UniProt P11712); assay: CYP2C9 inhibition (fluorescent substrate MFC); assay type: in vitro ADME; details: read-out: Cyp IC50 2C9
Summary of the method: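 Compounds, serially diluted 1:1 over 10 points in NADPH-regenerating cofactor mix with 5% acetonitrile, were preincubated 10 min at 37 °C, then run with enzyme and substrate at 37 °C (CYP1A2 15 min; CYP2C9 45 min; CYP2C19, CYP2D6 30 min). Product fluorescence gave IC50s.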

Sequence of CYP2C9 (P11712 whole entry): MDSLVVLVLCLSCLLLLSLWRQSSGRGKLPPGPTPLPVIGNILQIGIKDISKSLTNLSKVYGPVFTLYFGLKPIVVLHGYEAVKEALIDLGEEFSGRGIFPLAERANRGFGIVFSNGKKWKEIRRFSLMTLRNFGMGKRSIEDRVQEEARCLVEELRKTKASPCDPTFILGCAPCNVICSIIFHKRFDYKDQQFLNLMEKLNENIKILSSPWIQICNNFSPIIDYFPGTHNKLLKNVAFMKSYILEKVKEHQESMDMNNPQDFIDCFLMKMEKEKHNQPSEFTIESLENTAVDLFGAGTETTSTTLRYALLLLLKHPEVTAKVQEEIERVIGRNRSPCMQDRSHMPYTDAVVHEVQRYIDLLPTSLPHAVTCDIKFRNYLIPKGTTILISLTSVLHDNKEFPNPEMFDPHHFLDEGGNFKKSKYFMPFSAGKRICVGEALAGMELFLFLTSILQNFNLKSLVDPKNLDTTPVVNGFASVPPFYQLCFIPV
Sequence of c-Kit kinase (P10721 26-976): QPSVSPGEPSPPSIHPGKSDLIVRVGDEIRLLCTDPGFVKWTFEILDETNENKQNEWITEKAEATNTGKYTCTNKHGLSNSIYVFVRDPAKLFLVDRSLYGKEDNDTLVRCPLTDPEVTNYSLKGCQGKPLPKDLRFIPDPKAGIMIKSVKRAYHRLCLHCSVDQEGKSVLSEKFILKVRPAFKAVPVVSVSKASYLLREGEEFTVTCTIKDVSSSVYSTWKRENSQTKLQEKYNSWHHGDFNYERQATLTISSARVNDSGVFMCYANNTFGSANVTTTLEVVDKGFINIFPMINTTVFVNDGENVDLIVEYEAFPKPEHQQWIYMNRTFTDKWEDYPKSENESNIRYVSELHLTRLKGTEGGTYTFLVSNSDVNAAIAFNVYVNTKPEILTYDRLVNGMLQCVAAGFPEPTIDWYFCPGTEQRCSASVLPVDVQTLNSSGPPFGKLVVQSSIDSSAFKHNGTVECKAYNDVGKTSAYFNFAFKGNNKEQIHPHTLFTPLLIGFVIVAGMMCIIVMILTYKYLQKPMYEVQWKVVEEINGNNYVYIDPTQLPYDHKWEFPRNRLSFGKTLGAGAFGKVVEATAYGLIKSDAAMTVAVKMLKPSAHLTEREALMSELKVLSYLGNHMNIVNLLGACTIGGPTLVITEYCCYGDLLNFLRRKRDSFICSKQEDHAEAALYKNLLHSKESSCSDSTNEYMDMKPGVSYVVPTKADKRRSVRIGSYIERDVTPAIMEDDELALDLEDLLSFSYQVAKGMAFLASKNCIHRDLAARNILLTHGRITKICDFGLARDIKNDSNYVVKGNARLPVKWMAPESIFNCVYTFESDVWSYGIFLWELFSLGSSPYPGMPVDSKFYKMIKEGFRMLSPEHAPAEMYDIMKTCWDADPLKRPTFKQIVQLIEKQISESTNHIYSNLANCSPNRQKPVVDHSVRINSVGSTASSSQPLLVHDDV

SMILES	IC50 [1] [µM]	IC50 [2] [µM]
Clc1cnc2[nH]cc(Cc3cnc(NC4CCCCC4)nc3)c2c1 [Compound P-3001, [5-(5-chloro-1H-pyrrolo[2,3-b]pyridin-3-ylmethyl)-pyrimidin-2-yl]-cyclohexyl-amine]	< 1	> 10
Cc1cnc2[nH]cc(Cc3cnc(Nc4ccc(C(F)(F)F)nc4)nc3)c2c1 [Compound P-3018, [5-(5-Methyl-1H-pyrrolo[2,3-b]pyridin-3-ylmethyl)-pyrimidin-2-yl]-(6-trifluoromethyl-pyridin-3-yl)-amine]	< 0.01	> 10
CCOc1ccc(Nc2ccc(Cc3c[nH]c4ncc(C)cc34)c(F)n2)cn1 [Compound P-3039, (6-ethoxy-pyridin-3-yl)-[6-fluoro-5-(5-methyl-1H-pyrrolo[2,3-b]pyridin-3-ylmethyl)-pyridin-2-yl]-amine]	< 0.1	> 10
Cc1cnc2[nH]cc(Cc3ccc(Nc4ccc(C5CC5)nc4)nc3F)c2c1 [Compound P-3050, (6-Cyclopropyl-pyridin-3-yl)-[6-fluoro-5-(5-methyl-1H-pyrrolo[2,3-b]pyridin-3-ylmethyl)-pyridin-2-yl]-amine]	< 0.1	> 10
Cc1ccc(Nc2ccc(C(=O)c3c[nH]c4ncc(Cl)cc34)c(F)n2)cn1 [Compound P-3044, (5-Chloro-1H-pyrrolo[2,3-b]pyridin-3-yl)-[2-fluoro-6-(6-methyl-pyridin-3-ylamino)-pyridin-3-yl]-methanone]	< 1	> 10
COc1ccc(Nc2ccc(C(=O)c3c[nH]c4ncc(C)cc34)c(F)n2)cn1 [Compound P-3040, [2-Fluoro-6-(6-methoxy-pyridin-3-ylamino)-pyridin-3-yl]-(5-methyl-1H-pyrrolo[2,3-b]pyridin-3-yl)-methanone]	> 1	> 10
Clc1cnc2[nH]cc(Cc3cnc(NC4CCCCCC4)nc3)c2c1 [Compound P-3006, [5-(5-Chloro-1H-pyrrolo[2,3-b]pyridin-3-ylmethyl)-pyrimidin-2-yl]-cycloheptyl-amine]	< 1	> 10
COc1ccc(Nc2ccc(Cc3c[nH]c4ncc(C)cc34)c(F)n2)cn1 [Compound P-3019, [6-fluoro-5-(5-methyl-1H-pyrrolo[2,3-b]pyridin-3-ylmethyl)-pyridin-2-yl]-(6-methoxy-pyridin-3-yl)-amine]	< 1	> 10
Cc1cnc2[nH]cc(Cc3ccc(Nc4ccc(C)nc4)nc3F)c2c1 [Compound P-3041, [6-Fluoro-5-(5-methyl-1H-pyrrolo[2,3-b]pyridin-3-ylmethyl)-pyridin-2-yl]-(6-methyl-pyridin-3-yl)-amine]	< 1	> 10
CCc1ccc(Nc2ccc(Cc3c[nH]c4ncc(C)cc34)c(F)n2)cn1 [Compound P-3048, (6-Ethyl-pyridin-3-yl)-[6-fluoro-5-(5-methyl-1H-pyrrolo[2,3-b]pyridin-3-ylmethyl)-pyridin-2-yl]-amine]	< 0.1	> 10
CCOc1ccc(Nc2ncc(Cc3c[nH]c4ncc(C)cc34)cn2)cn1 [Compound P-3027, (6-Ethoxy-pyridin-3-yl)-[5-(5-methyl-1H-pyrrolo[2,3-b]pyridin-3-ylmethyl)-pyrimidin-2-yl]-amine]	< 0.01	
COc1ccccc1Nc1ncc(Cc2c[nH]c3ncc(Cl)cc23)cn1 [Compound P-3016, [5-(5-Chloro-1H-pyrrolo[2,3-b]pyridin-3-ylmethyl)-pyrimidin-2-yl]-(2-methoxy-phenyl)-amine]	< 0.1	
Cc1cnc2[nH]cc(Cc3cnc(Nc4cc(C5CC5)n[nH]4)nc3)c2c1 [Compound P-3032, (5-Cyclopropyl-2H-pyrazol-3-yl)-[5-(5-methyl-1H-pyrrolo[2,3-b]pyridin-3-ylmethyl)-pyrimidin-2-yl]-amine]	< 1	

Further lines, results first:

IC50 [1] [µM]	IC50 [2] [µM]	SMILES
< 1	5 to 10	CCn1cc(Nc2ccc(Cc3c[nH]c4ncnc(OC)c34)c(F)n2)cn1 [Compound P-4011, (1-Ethyl-1H-pyrazol-4-yl)-[6-fluoro-5-(4-methoxy-7H-pyrrolo[2,3-d]pyrimidin-5-ylmethyl)-pyridin-2-yl]-amine]
< 1	> 10	COc1ccc(Nc2ccc(C(=O)c3c[nH]c4ncnc(C5CC5)c34)c(F)n2)cn1 [Compound P-4022, (4-cyclopropyl-7H-pyrrolo[2,3-d]pyrimidin-5-yl)-[2-fluoro-6-(6-methoxy-pyridin-3-ylamino)-pyridin-3-yl]-methanone]
< 0.1	> 10	Cc1ccc(Nc2ccc(C(=O)c3c[nH]c4ncnc(C5CC5)c34)c(F)n2)cn1 [Compound P-4031, (4-Cyclopropyl-7H-pyrrolo[2,3-d]pyrimidin-5-yl)-[2-fluoro-6-(6-methyl-pyridin-3-ylamino)-pyridin-3-yl]-methanone]
< 1	> 10	CCOc1ccc(Nc2ccc(Cc3c[nH]c4ncnc(OCCOC)c34)c(F)n2)cn1 [Compound P-4008, (6-Ethoxy-pyridin-3-yl)-{6-fluoro-5-[4-(2-methoxy-ethoxy)-7H-pyrrolo[2,3-d]pyrimidin-5-ylmethyl]-pyridin-2-yl}-amine]
< 0.1	> 10	CCc1ccc(Nc2ccc(C(=O)c3c[nH]c4ncnc(C5CC5)c34)c(F)n2)cn1 [Compound P-4029, (4-Cyclopropyl-7H-pyrrolo[2,3-d]pyrimidin-5-yl)-[6-(6-ethyl-pyridin-3-ylamino)-2-fluoro-pyridin-3-yl]-methanone]
< 0.1	> 10	COCCOc1ncnc2[nH]cc(Cc3ccc(Nc4ccc(C)nc4)nc3F)c12 [Compound P-4015, {6-Fluoro-5-[4-(2-methoxy-ethoxy)-7H-pyrrolo[2,3-d]pyrimidin-5-ylmethyl]-pyridin-2-yl}-(6-methyl-pyridin-3-yl)-amine]
< 1	< 5	CCn1cc(Nc2ccc(Cc3c[nH]c4ncnc(C)c34)c(F)n2)cn1 [Compound P-4013, (1-Ethyl-1H-pyrazol-4-yl)-[6-fluoro-5-(4-methyl-7H-pyrrolo[2,3-d]pyrimidin-5-ylmethyl)-pyridin-2-yl]-amine]
< 1	5 to 10	CCn1cc(Nc2ccc(Cc3c[nH]c4ncnc(C5CC5)c34)c(F)n2)cn1 [Compound P-4036, [5-(4-Cyclopropyl-7H-pyrrolo[2,3-d]pyrimidin-5-ylmethyl)-6-fluoro-pyridin-2-yl]-(1-ethyl-1H-pyrazol-4-yl)-amine]
< 1	5 to 10	CCn1cc(Nc2ccc(C(=O)c3c[nH]c4ncnc(C5CC5)c34)c(F)n2)cn1 [Compound P-4037, (4-Cyclopropyl-7H-pyrrolo[2,3-d]pyrimidin-5-yl)-[6-(1-ethyl-1H-pyrazol-4-ylamino)-2-fluoro-pyridin-3-yl]-methanone]
< 1	> 10	Fc1nc(Nc2ccc(C3CC3)nc2)ccc1Cc1c[nH]c2ncnc(NCC(F)(F)F)c12 [Compound P-4130, 5-[[6-[(6-cyclopropyl-3-pyridyl)amino]-2-fluoro-3-pyridyl]methyl]-N-(2,2,2-trifluoroethyl)-7H-pyrrolo[2,3-d]pyrimidin-4-amine]
< 0.1	> 10	CCc1ccc(Nc2ccc(Cc3c[nH]c4ncnc(OC)c34)c(F)n2)cn1 [Compound P-4007, (6-Ethyl-pyridin-3-yl)-[6-fluoro-5-(4-methoxy-7H-pyrrolo[2,3-d]pyrimidin-5-ylmethyl)-pyridin-2-yl]-amine]
< 0.1	> 10	COc1ncnc2[nH]cc(Cc3ccc(Nc4ccc(C5CC5)nc4)nc3F)c12 [Compound P-4004, (6-Cyclopropyl-pyridin-3-yl)-[6-fluoro-5-(4-methoxy-7H-pyrrolo[2,3-d]pyrimidin-5-ylmethyl)-pyridin-2-yl]-amine]
< 0.1	> 10	CCOc1ccc(Nc2ccc(Cc3c[nH]c4ncnc(OC)c34)c(F)n2)cn1 [Compound P-4005, (6-Ethoxy-pyridin-3-yl)-[6-fluoro-5-(4-methoxy-7H-pyrrolo[2,3-d]pyrimidin-5-ylmethyl)-pyridin-2-yl]-amine]
< 0.1	> 10	CCc1ccc(Nc2ccc(Cc3c[nH]c4ncnc(C)c34)c(F)n2)cn1 [Compound P-4009, (6-Ethyl-pyridin-3-yl)-[6-fluoro-5-(4-methyl-7H-pyrrolo[2,3-d]pyrimidin-5-ylmethyl)-pyridin-2-yl]-amine]
< 1	> 10	COc1ncnc2[nH]cc(Cc3ccc(Nc4ccc(C)nc4)nc3F)c12 [Compound P-4010, [6-Fluoro-5-(4-methoxy-7H-pyrrolo[2,3-d]pyrimidin-5-ylmethyl)-pyridin-2-yl]-(6-methyl-pyridin-3-yl)-amine]
< 0.1	> 10	CCOc1ccc(Nc2ccc(Cc3c[nH]c4ncnc(C)c34)c(F)n2)cn1 [Compound P-4006, (6-Ethoxy-pyridin-3-yl)-[6-fluoro-5-(4-methyl-7H-pyrrolo[2,3-d]pyrimidin-5-ylmethyl)-pyridin-2-yl]-amine]
< 1		Cc1cncc(Nc2ccc(C(=O)c3c[nH]c4ncnc(C5CC5)c34)c(F)n2)c1 [Compound P-4039, (4-Cyclopropyl-7H-pyrrolo[2,3-d]pyrimidin-5-yl)-[2-fluoro-6-(5-methyl-pyridin-3-ylamino)-pyridin-3-yl]-methanone]
< 1		Cc1cncc(Nc2ccc(Cc3c[nH]c4ncnc(C5CC5)c34)c(F)n2)c1 [Compound P-4038, [5-(4-Cyclopropyl-7H-pyrrolo[2,3-d]pyrimidin-5-ylmethyl)-6-fluoro-pyridin-2-yl]-(5-methyl-pyridin-3-yl)-amine]
